Values quoted from earlier work in patent US20110293714A1, “PHARMACEUTICAL COMPOSITIONS SUITABLE FOR ORAL ADMINISTRATION OF DERIVATIZED INSULIN PEPTIDES” (priority 2008, published 2011).
Like-named read-outs stand apart in the source and are kept apart here.

Settings: static electric fields or relatively low frequencies

| Compound | Dielectric constant, ∈* (303.2 Kelvin) | Dielectric constant, ∈* (293.2 Kelvin) |
| --- | --- | --- |
| CC(O)CO (stereo not shown) [1,2-propanediol [propylene glycol], 1,2-propanediol] | 27.5 | – |
| CC(O)CCO (stereo not shown) [1,3-butanediol] | – | 28.8 |
| OCCCO [1,3-propanediol] | – | 35.1 |
| CCO [Ethanol] | – | 25.3 |
| CC(C)O [Isopropanol] | – | 20.18 |
| CO [Methanol] | – | 33.0 |
| O [Water] | – | 80.1 |
